Reference: patent publication US20260166159A1, “KRAS G12D DEGRADATION AGENT, AND PREPARATION METHOD AND USE THEREFOR” (LEADINGTAC PHARMACEUTICAL (SHAOXING) CO., LTD., priority 2022, published 2026)

Experiments:
KRAS-G12D = biological target: T1, KRAS-G12D (Homo sapiens, UniProt P01116, G12D); test: KRAS-G12D degradation assay (Western Blot), A-427 cells; assay type: cell-based; conditions: A427 cells, 24 h, class symbols; for Dmax: A-427
T1 construct: endogenous in cells; host or cells: A-427 (ATCC), AGS, AsPc-1, Panc 04.03
T1 sequence (P01116 1-188 isoform P01116-2 G12D): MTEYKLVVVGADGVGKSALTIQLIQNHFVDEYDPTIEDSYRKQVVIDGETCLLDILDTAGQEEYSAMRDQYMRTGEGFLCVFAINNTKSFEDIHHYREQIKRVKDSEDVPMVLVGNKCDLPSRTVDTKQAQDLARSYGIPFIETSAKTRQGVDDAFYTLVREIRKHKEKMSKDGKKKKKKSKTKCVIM
Method in brief: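 Each KRAS G12D mutant line (A-427, AGS, AsPc-1, Panc 04.03) was seeded at 5×10^5 cells/well and treated 24 h at 37 °C with 0.03–3000 nM compound (final DMSO 0.25%). KRAS in lysates was measured by Western blot, normalized to β-actin and compared with controls, giving DC50 and Dmax from curve fits.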

[1] = tested on: KRAS G12D mutant human lung cancer cell A427; test: 3D cell proliferation inhibition assay, A427; assay type: cell-based; conditions: A-427, 168 h, A427, 7 days, CTG, class symbols
Method in brief: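 IC50 values derive from nonlinear fits of log dose against percent inhibition of 7-day 3D proliferation. Readout: CTG luminescence. Plating density: 5×10^2 cells/well in low-adsorption plates. Dosing: 10000–0.026 nM final, 0.2% DMSO.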

SMILES | DC50 (KRAS-G12D) [nM] | Dmax (KRAS-G12D) [%] | IC50 [1] [nM]
C#Cc1c(F)ccc2cc(O)cc(-c3ncc4c(N5CC6CCC(C5)N6)nc(OCC5(CN6CCN(CCC7CCN(C(=O)c8ccc(Cl)c(N9CCC(=O)NC9=O)c8)CC7)CC6)CC5)nc4c3F)c12 [Example 3, 1-(5-(4-(2-(4-((1-(((4-(3,8-diazabicyclo[3.2.1]octan-3-yl)-7-(8-ethynyl-7-fluoro-3-hydroxynaphthalen-1-yl)-8-fluoropyrido[4,3-d]pyrimidin-2-yl)oxy)methyl)cyclopropyl)methyl)piperazin-1-yl)ethyl)piperidine-1-carbonyl)-2-chlorophenyl)dihydropyrimidine-2,4(1H,3H)-dione] | ≤ 50 | 50 to 80 | 1000 to 10000
C#Cc1c(F)ccc2cc(O)cc(-c3ncc4c(N5CC6CCC(C5)N6)nc(OCC5(CN6CCN(CCCC7CCN(C(=O)c8ccc(Cl)c(N9CCC(=O)NC9=O)c8)CC7)CC6)CC5)nc4c3F)c12 [Example 4, 1-(5-(4-(3-(4-((1-(((4-(3,8-diazabicyclo[3.2.1]octan-3-yl)-7-(8-ethynyl-7-fluoro-3-hydroxynaphthalen-1-yl)-8-fluoropyrido[4,3-d]pyrimidin-2-yl)oxy)methyl)cyclopropyl)methyl)piperazin-1-yl)propyl)piperidine-1-carbonyl)-2-chlorophenyl)dihydropyrimidine-2,4(1H,3H)-dione] | ≤ 50 | 80 to 100 | 100 to 500
C#Cc1c(F)ccc2cc(O)cc(-c3ncc4c(N5CC6CCC(C5)N6)nc(OCC5(CN6CCN(CCCCC7CCN(C(=O)c8ccc(Cl)c(N9CCC(=O)NC9=O)c8)CC7)CC6)CC5)nc4c3F)c12 [Example 5, 1-(5-(4-(4-(4-((1-(((4-(3,8-diazabicyclo[3.2.1]octan-3-yl)-7-(8-ethynyl-7-fluoro-3-hydroxynaphthalen-1-yl)-8-fluoropyrido[4,3-d]pyrimidin-2-yl)oxy)methyl)cyclopropyl)methyl)piperazin-1-yl)butyl)piperidine-1-carbonyl)-2-chlorophenyl)dihydropyrimidine-2,4(1H,3H)-dione] | ≤ 50 | 80 to 100 | 50 to 100
C#Cc1c(F)ccc2cc(O)cc(-c3ncc4c(N5CC6CCC(C5)N6)nc(OCC5(CN6CCN(CC7CCC8(CC7)CCN(C(=O)c7ccc(Cl)c(N9CCC(=O)NC9=O)c7)CC8)CC6)CC5)nc4c3F)c12 [Example 6, 1-(5-(9-((4-((1-(((4-(3,8-diazabicyclo[3.2.1]octan-3-yl)-7-(8-ethynyl-7-fluoro-3-hydroxynaphthalen-1-yl)-8-fluoropyrido[4,3-d]pyrimidin-2-yl)oxy)methyl)cyclopropyl)methyl)piperazin-1-yl)methyl)-3-azaspiro[5.5]undecane-3-carbonyl)-2-chlorophenyl)dihydropyrimidine-2,4(1H,3H)-dione] | ≤ 50 | 80 to 100 | ≤ 50
C#Cc1c(F)ccc2cc(O)cc(-c3ncc4c(N5CC6CCC(C5)N6)nc(OCC5(CN6CCN(CCCC7CCC8(CC7)CCN(C(=O)c7ccc(Cl)c(N9CCC(=O)NC9=O)c7)CC8)CC6)CC5)nc4c3F)c12 [Example 7, 1-(5-(9-(3-(4-((1-(((4-(3,8-diazabicyclo[3.2.1]octan-3-yl)-7-(8-ethynyl-7-fluoro-3-hydroxynaphthalen-1-yl)-8-fluoropyrido[4,3-d]pyrimidin-2-yl)oxy)methyl)cyclopropyl)methyl)piperazin-1-yl)propyl)-3-azaspiro[5.5]undecane-3-carbonyl)-2-chlorophenyl)dihydropyrimidine-2,4(1H,3H)-dione] | ≤ 50 | 80 to 100 | ≤ 50
C#Cc1c(F)ccc2cc(O)cc(-c3ncc4c(N5CC6CCC(C5)N6)nc(OCC5(CN6CCN(CCCC7CCN(C(=O)c8ccc(OC)c(N9CCC(=O)NC9=O)c8)CC7)CC6)CC5)nc4c3F)c12 [Example 8, 1-(5-(4-(3-(4-((1-(((4-(3,8-diazabicyclo[3.2.1]octan-3-yl)-7-(8-ethynyl-7-fluoro-3-hydroxynaphthalen-1-yl)-8-fluoropyrido[4,3-d]pyrimidin-2-yl)oxy)methyl)cyclopropyl)methyl)piperazin-1-yl)propyl)piperidine-1-carbonyl)-2-methoxyphenyl)dihydropyrimidine-2,4(1H,3H)-dione] | ≤ 50 | 50 to 80 | 50 to 100
C#Cc1c(F)ccc2cc(O)cc(-c3ncc4c(N5CC6CCC(C5)N6)nc(OCC5(CN6CCC(CCOCC7CCN(C(=O)c8ccc(Cl)c(N9CCC(=O)NC9=O)c8)CC7)CC6)CC5)nc4c3F)c12 [Example 10] | ≤ 50 | 80 to 100 | 100 to 500
C#Cc1c(F)ccc2cc(O)cc(-c3ncc4c(N5CC6CCC(C5)N6)nc(OCC5(CN6CCC(COCC7CCN(C(=O)c8ccc(Cl)c(N9CCC(=O)NC9=O)c8)CC7)CC6)CC5)nc4c3F)c12 [Example 13, 1-(5-(4-(((1-((1-(((4-(3,8-diazabicyclo[3.2.1]octan-3-yl)-7-(8-ethynyl-7-fluoro-3-hydroxynaphthalen-1-yl)-8-fluoropyrido[4,3-d]pyrimidin-2-yl)oxy)methyl)cyclopropyl)methyl)piperidin-4-yl)methoxy)methyl)piperidine-1-carbonyl)-2-chlorophenyl)dihydropyrimidine-2,4(1H,3H)-dione] | 50 to 100 | 50 to 80 | 50 to 100
C#Cc1c(F)ccc2cc(O)cc(-c3ncc4c(N5CC6CCC(C5)N6)nc(OCC5(CN6CCN(CC7CCC8(CC7)CCN(C(=O)c7ccc(OC)c(N9CCC(=O)NC9=O)c7)CC8)CC6)CC5)nc4c3F)c12 [Example 14, 1-(5-(9-((4-((1-(((4-(3,8-diazabicyclo[3.2.1]octan-3-yl)-7-(8-ethynyl-7-fluoro-3-hydroxynaphthalen-1-yl)-8-fluoropyrido[4,3-d]pyrimidin-2-yl)oxy)methyl)cyclopropyl)methyl)piperazin-1-yl)methyl)-3-azaspiro[5.5]undecane-3-carbonyl)-2-methoxyphenyl)dihydropyrimidine-2,4(1H,3H)-dione] | ≤ 50 | 80 to 100 | ≤ 50
CCc1c(F)ccc2cc(O)cc(-c3ncc4c(N5CC6CCC(C5)N6)nc(OCC5(CN6CCN(CC7CCC8(CC7)CCN(C(=O)c7ccc(OC)c(N9CCC(=O)NC9=O)c7)CC8)CC6)CC5)nc4c3F)c12 [Example 15, 1-(5-(9-((4-((1-(((4-(3,8-diazabicyclo[3.2.1]octan-3-yl)-7-(8-ethyl-7-fluoro-3-hydroxynaphthalen-1-yl)-8-fluoropyrido[4,3-d]pyrimidin-2-yl)oxy)methyl)cyclopropyl)methyl)piperazin-1-yl)methyl)-3-azaspiro[5.5]undecane-3-carbonyl)-2-methoxyphenyl)dihydropyrimidine-2,4(1H,3H)-dione] | ≤ 50 | 80 to 100 | ≤ 50
Cc1ccc2[nH]ncc2c1-c1ncc2c(N3CC4CCC(C3)N4)nc(OCC3(CN4CCN(CC5CCC6(CC5)CCN(C(=O)c5ccc(Cl)c(N7CCC(=O)NC7=O)c5)CC6)CC4)CC3)nc2c1F [Example 16, 1-(5-(9-((4-((1-(((4-(3,8-diazabicyclo[3.2.1]octan-3-yl)-8-fluoro-7-(5-methyl-1H-indazol-4-yl)pyrido[4,3-d]pyrimidin-2-yl)oxy)methyl)cyclopropyl)methyl)piperazin-1-yl)methyl)-3-azaspiro[5.5]undecane-3-carbonyl)-2-chlorophenyl)dihydropyrimidine-2,4(1H,3H)-dione] | 1000 to 10000 | 30 to 50 | 100 to 500
